Data published in US8183006B2, “Screening method for identifying new aminoacyl-tRNA synthetase inhibitors” (Fundacio Privada Parc Cientific de Barcelona, priority 2006, dated 2012).

Legend:
[1] = tested on: isoleucyl-tRNA synthetases (IleRS) from Gram-positive infectious pathogens; conditions: cited from earlier work
[2] = limits use to topical applications; cited from earlier work
[3] = tested on: HeLa cells expressing S. pneumoniae editing-defective isoleucyl-tRNA synthetase (IleRSTA); assay: valine toxicity in transfected HeLa cells, cell death by propidium iodide staining (flow cytometry); assay type: cell-based, human; conditions: IleRSTA-expressing HeLa cells compared to wild type IleRS or GFP expressing HeLa cells; FIG. 2
Method: Cell death was measured by propidium iodide staining. Axis y represents the percentage of cell survival (abbreviated as “% C.S.”) and axis x represents the concentration of valine (mM).
For transient transfections, 20 μg of each DNA construct was added to 500 μl water containing 252 mM CaCl2. Then, 500 μl of 2×Hepes-buffered-saline buffer (280 mM NaCl, 10 mM KCl, 1.5 mM Na2HPO4, 50 mM HEPES, 12 mM dextrose, pH 7.1) was added to the DNA mixture drop by drop. 16 hours after adding this transfection mixture to the cells, the medium containing DNA was removed and new medium was added. After 24 hours, transfected cells were used for experimentation.
10 μg/ml propidium iodide was used for determination of cell viability in transiently GFP fusion proteins transfected HeLa cells. Stained cells were analyzed immediately using a Coulter Epics XL (Beckman Coulter) and analyzed using System II software.
To assess whether the expression S. pneumoniae mutated editing domain GFPIleRS has a toxic effect in a mammalian system in the presence of increasing concentrations of valine in the media, GFP, S. pneumoniae wild type (IleRS) and mutated editing domain (IleRSTA) were expressed in HeLa cells.

Question: What does the source list for `C/C(=C\C(=O)OCCCCCCCCC(=O)O)C[C@@H]1OC[C@H](C[C@@H]2O[C@H]2[C@@H](C)[C@H](C)O)[C@@H](O)[C@H]1O` [Pseudomonic acid]?
Answer: selectivity for pathogen vs. mammalian IleRS [1]: ~8000 fold; systemic bioavailability [2]: lack of systemic bioavailability

Question: Which “sensitivity to cell death (% cell survival) with increasing concentrations of valine in the media” value [3] does the source give for `CC(C)[C@H](N)C(=O)O` [valine] here?
Answer: higher sensitivity
